From ChEMBL document CHEMBL1137407, “Identification and optimization of anthranilic sulfonamides as novel, selective cholecystokinin-2 receptor antagonists” (J Med Chem, 2006)

Key:
[1] = molecular target: T1, Gastrin/cholecystokinin type B receptor (Homo sapiens, UniProt P32239)
T1 sequence (P32239 whole entry): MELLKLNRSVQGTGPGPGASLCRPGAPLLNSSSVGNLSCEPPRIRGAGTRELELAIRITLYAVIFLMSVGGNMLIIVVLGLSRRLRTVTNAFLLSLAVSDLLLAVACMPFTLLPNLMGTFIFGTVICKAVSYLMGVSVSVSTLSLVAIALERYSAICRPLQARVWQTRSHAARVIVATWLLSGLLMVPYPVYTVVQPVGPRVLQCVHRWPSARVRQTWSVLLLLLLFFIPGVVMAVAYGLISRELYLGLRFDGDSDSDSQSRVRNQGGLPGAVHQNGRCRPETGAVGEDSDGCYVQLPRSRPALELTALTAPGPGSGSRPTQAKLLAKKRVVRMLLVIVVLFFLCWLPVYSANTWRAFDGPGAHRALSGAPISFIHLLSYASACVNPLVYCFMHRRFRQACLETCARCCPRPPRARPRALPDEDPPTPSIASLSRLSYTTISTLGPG
Description: Displacement of [125I]CCK-8S from human CCK2R

[2] = molecular target: T2, Cholecystokinin receptor type A (Homo sapiens, UniProt P32238)
T2 sequence (P32238 whole entry): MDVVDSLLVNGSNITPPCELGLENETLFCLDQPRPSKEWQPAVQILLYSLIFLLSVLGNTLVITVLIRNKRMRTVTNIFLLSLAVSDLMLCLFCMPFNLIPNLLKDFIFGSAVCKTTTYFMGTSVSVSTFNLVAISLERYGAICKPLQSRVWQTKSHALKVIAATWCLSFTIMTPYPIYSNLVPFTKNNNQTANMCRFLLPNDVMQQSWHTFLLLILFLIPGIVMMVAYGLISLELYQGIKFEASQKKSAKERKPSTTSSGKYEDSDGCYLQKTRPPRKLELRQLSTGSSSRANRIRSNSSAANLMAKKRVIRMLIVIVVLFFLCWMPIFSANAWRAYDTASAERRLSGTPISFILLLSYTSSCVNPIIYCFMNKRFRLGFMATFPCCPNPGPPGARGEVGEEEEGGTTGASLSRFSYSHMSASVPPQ
Description: Displacement of [125I]CCK-8S from human CCK1R

[3] = Stability in human liver microsome after 30 mins; type: ADME; details: liver microsomes, read-out: Stability
[4] = Stability in rat liver microsome after 30 mins; type: ADME; details: liver microsomes, read-out: Stability

| SMILES | Ki ([1]; read-out: Log Ki (converted)) [µM] | Ki ([2]; read-out: Ki) [µM] | further results |
| --- | --- | --- | --- |
| O=C(N[C@@H](Cc1ccccc1)C(=O)O)c1ccccc1NS(=O)(=O)c1cc2ccccc2[nH]1 | 5.01 |  |  |
| O=C(c1ccccc1NS(=O)(=O)c1cccc2nsnc12)N1CCOCC1 |  | > 10 | Ki ([1]; read-out: Ki): > 10 µM |
| O=C(c1ccc(Br)cc1NS(=O)(=O)c1cccc2nccnc12)N1CCOCC1 |  | > 10 |  |
| O=C(c1ccc(Br)cc1NS(=O)(=O)c1cccc2nsnc12)N1CCOCC1 | 0.126 | > 10 |  |
| O=C(O)[C@@H]1CCCN1C(=O)c1ccc(Cl)cc1NS(=O)(=O)c1cccc2nsnc12 |  | > 10 | Ki ([1]; read-out: Ki): > 10 µM |
| O=C(Nc1ccccc1C(=O)NC(Cc1ccccc1)C(=O)O)c1cc2ccccc2[nH]1 (stereo unspecified) |  |  | Ki ([1]; read-out: Ki): > 10 µM; Ki ([2]; read-out: Log Ki (converted)): 0.0316 µM |
| CC1CCCCN1C(=O)c1ccc(Cl)cc1NS(=O)(=O)c1cccc2nsnc12 (stereo unspecified) |  | > 10 | remaining at 0.5 h [3]: 14%; remaining at 0.5 h [4]: 3% |
| C[C@@H]1COC[C@H](C)N1C(=O)c1ccc(Cl)cc1NS(=O)(=O)c1cccc2nccnc12 | 0.631 | > 10 |  |
| O=C(c1ccc(I)cc1NS(=O)(=O)c1cccc2nsnc12)N1CCOCC1 |  | > 10 |  |
| O=C(NCc1ccccc1)c1ccc(Cl)cc1NS(=O)(=O)c1cccc2nsnc12 | 2.51 | > 10 |  |
| O=C(c1ccc(Cl)cc1NS(=O)(=O)c1cccc2nsnc12)N1CCc2ccccc2C1 | 1 | > 10 |  |
| O=C(c1ccc(Br)cc1NS(=O)(=O)c1cccc2cnccc12)N1CCCCC1 |  | > 10 | Ki ([1]; read-out: Ki): > 10 µM |
| O=C(Nc1cc(Br)ccc1C(=O)N1CCCCC1)c1cccc2nsnc12 |  | > 10 | Ki ([1]; read-out: Ki): > 10 µM |
| CC1CN(C(=O)c2ccc(Cl)cc2NS(=O)(=O)c2cccc3nsnc23)CCN1 (stereo unspecified) |  | > 10 | Ki ([1]; read-out: Ki): > 10 µM |
| O=C(c1ccc(F)cc1NS(=O)(=O)c1cccc2nccnc12)N1CCOCC1 | 3.98 | > 10 |  |
| O=C(c1ccc(Br)cc1NS(=O)(=O)c1cccc2ncccc12)N1CCCCC1 | 0.794 | > 10 |  |
| O=C(c1ccc(Cl)cc1NS(=O)(=O)c1cccc2nsnc12)N1CCC(c2ccccc2)CC1 | 0.0631 | > 10 |  |

| SMILES | Ki ([1]; read-out: Log Ki (converted)) [µM] | Ki ([2]; read-out: Ki) [µM] | further results |
| --- | --- | --- | --- |
| O=C(c1ccccc1NS(=O)(=O)c1cc2ccccc2[nH]1)N1CCCCC1 |  |  | Ki ([1]; read-out: Ki): > 10 µM; Ki ([2]; read-out: Log Ki (converted)): 7.94 µM |
| O=C(c1ccc(Cl)cc1NS(=O)(=O)c1cccc2nsnc12)N1CCC(CO)CC1 | 1.26 | > 10 |  |
| CN(Cc1ccccc1)C(=O)c1ccc(Cl)cc1NS(=O)(=O)c1cccc2nsnc12 | 0.0316 | > 10 | remaining at 0.5 h [3]: 2.2% |
| O=C(c1ccc(Br)cc1NS(=O)(=O)c1cccc2ccccc12)N1CCCCC1 |  | > 10 | Ki ([1]; read-out: Ki): > 10 µM |
| O=C(c1ccc(Br)cc1NS(=O)(=O)c1c(F)ccc2nsnc12)N1CCCCC1 | 0.0398 | > 10 |  |
| O=C(c1ccc(Cl)cc1NS(=O)(=O)c1cccc2nsnc12)N1CCSC1 |  | > 10 |  |
| O=C(c1ccc(Br)cc1NS(=O)(=O)c1ccc2nsnc2c1)N1CCCCC1 | > 10 | > 10 |  |
| O=C(N[C@@H](Cc1ccccc1)C(=O)O)c1ccc(Br)cc1NS(=O)(=O)c1cc2ccccc2[nH]1 | 2 |  |  |
| O=C(c1ccc(Cl)cc1NS(=O)(=O)c1cccc2cccnc12)N1CCCCC1 |  | > 10 | Ki ([1]; read-out: Ki): > 10 µM |
| O=C(Nc1ccc(C(=O)N2CCCCC2)c(NS(=O)(=O)c2cccc3nsnc23)c1)c1ccccc1 | 7.94 |  |  |
| O=C(c1ccc(Cl)cc1NS(=O)(=O)c1cccc2nccnc12)N1CCOCC1 |  | > 10 |  |
| C[C@@H]1C=C[C@H](C)N1C(=O)c1ccc(Cl)cc1NS(=O)(=O)c1cccc2nsnc12 | 0.2 | > 10 |  |
| C[C@H]1COC[C@H](C)N1C(=O)c1ccc(Cl)cc1NS(=O)(=O)c1cccc2nccnc12 | 5.01 | > 10 |  |
| CC1CC(C)CN(C(=O)c2ccc(Cl)cc2NS(=O)(=O)c2cccc3nsnc23)C1 (stereo unspecified) | 1.26 | > 10 |  |
| O=C(c1ccc(F)cc1NS(=O)(=O)c1cccc2nsnc12)N1CCOCC1 | 3.98 | > 10 |  |
| O=C(c1ccccc1NS(=O)(=O)c1cccc2nsnc12)N1CCCCC1 |  |  | Ki ([1]; read-out: Ki): > 10 µM |
| O=C(c1ccc(Cl)cc1NS(=O)(=O)c1cccc2nsnc12)N1CCC[C@H]1CN1CCCC1 |  | > 10 | Ki ([1]; read-out: Ki): > 10 µM |

More lines, main results first:

| Ki ([1]; read-out: Log Ki (converted)) [µM] | Ki ([2]; read-out: Ki) [µM] | SMILES | further results |
| --- | --- | --- | --- |
| 0.316 | > 10 | CC(C)c1ccc(C(=O)N2CCCCC2)c(NS(=O)(=O)c2cccc3nsnc23)c1 |  |
| 0.00501 | > 10 | O=C(c1ccc(I)cc1NS(=O)(=O)c1cccc2nsnc12)N1CCCCC1 |  |
|  | > 10 | O=C(c1ccc([N+](=O)[O-])cc1NS(=O)(=O)c1cccc2nsnc12)N1CCCCC1 |  |
| 0.631 | > 10 | COc1ccc(C(=O)N2CCCCC2)c(NS(=O)(=O)c2cccc3nsnc23)c1 |  |
| 0.1 | > 10 | Cc1ccc2nsnc2c1S(=O)(=O)Nc1cc(Br)ccc1C(=O)N1CCCCC1 |  |
|  | > 10 | O=C(c1cc(Cl)c(Cl)cc1NS(=O)(=O)c1cccc2nsnc12)N1CCCCC1 | remaining at 0.5 h [3]: 8%; remaining at 0.5 h [4]: 8% |
|  | > 10 | CN(c1cc(Br)ccc1C(=O)N1CCCCC1)S(=O)(=O)c1cccc2nsnc12 | Ki ([1]; read-out: Ki): > 10 µM |
| 0.794 |  | O=C(c1cc(Br)ccc1NS(=O)(=O)c1cccc2nsnc12)N1CCCCC1 |  |
|  | > 10 | Cc1cccc(C(=O)N2CCCCC2)c1NS(=O)(=O)c1cccc2nsnc12 | Ki ([1]; read-out: Ki): > 10 µM |
| 2.51 | > 10 | COc1cc(NS(=O)(=O)c2cccc3nsnc23)c(C(=O)N2CCCCC2)cc1OC |  |
|  | > 10 | O=C(O)c1ccc(C(=O)N2CCCCC2)c(NS(=O)(=O)c2cccc3nsnc23)c1 | Ki ([1]; read-out: Ki): > 10 µM |
| 0.0631 | > 10 | O=C(c1ccc(Cl)cc1NS(=O)(=O)c1cccc2nsnc12)N1CCCCCC1 | remaining at 0.5 h [3]: 11%; remaining at 0.5 h [4]: 2% |
|  | > 10 | O=C(c1ccc(Cl)c(NS(=O)(=O)c2cccc3nsnc23)c1)N1CCCCC1 | Ki ([1]; read-out: Ki): > 10 µM |
| 0.1 | > 10 | O=C(c1ccc(CS)cc1NS(=O)(=O)c1cccc2nsnc12)N1CCCCC1 |  |
|  | > 10 | O=C(c1cccc(Cl)c1NS(=O)(=O)c1cccc2nsnc12)N1CCCCC1 | Ki ([1]; read-out: Ki): > 10 µM |
| 0.01 | > 10 | O=C(c1cc(Br)c(Br)cc1NS(=O)(=O)c1cccc2nsnc12)N1CCCCC1 |  |
| 1.58 | > 10 | O=C(c1ccc(Cl)cc1NS(=O)(=O)c1cccc2nsnc12)N1CCC1 |  |
| 0.126 | > 10 | O=C(c1ccc(-c2ccco2)cc1NS(=O)(=O)c1cccc2nsnc12)N1CCCCC1 |  |
| 0.1 | > 10 | Cc1ccc(S(=O)(=O)Nc2cc(Br)ccc2C(=O)N2CCCCC2)c2nsnc12 |  |

| Ki ([1]; read-out: Log Ki (converted)) [µM] | Ki ([2]; read-out: Ki) [µM] | SMILES | further results |
| --- | --- | --- | --- |
| 0.158 | > 10 | O=C(c1ccc(-c2ccccc2)cc1NS(=O)(=O)c1cccc2nsnc12)N1CCCCC1 |  |
| 0.126 | > 10 | O=C(c1cc2ccccc2cc1NS(=O)(=O)c1cccc2nsnc12)N1CCCCC1 |  |
| 0.158 | > 10 | O=C(c1ccc(Br)cc1NS(=O)(=O)c1ccc(Br)c2nsnc12)N1CCCCC1 |  |
|  | > 10 | CC(=O)Nc1ccc(C(=O)N2CCCCC2)c(NS(=O)(=O)c2cccc3nsnc23)c1 | Ki ([1]; read-out: Ki): > 10 µM |
| 0.501 | > 10 | O=C(c1ccc(-n2cccc2)cc1NS(=O)(=O)c1cccc2nsnc12)N1CCCCC1 |  |
| 0.251 | > 10 | CCc1ccc(C(=O)N2CCCCC2)c(NS(=O)(=O)c2cccc3nsnc23)c1 |  |
| 7.94 | > 10 | Nc1ccc(C(=O)N2CCCCC2)c(NS(=O)(=O)c2cccc3nsnc23)c1 |  |
| 1.26 | > 10 | O=C(c1ccc(NCc2ccccc2)cc1NS(=O)(=O)c1cccc2nsnc12)N1CCCCC1 |  |
|  | > 10 | O=C(c1ccc(Cl)cc1NS(=O)(=O)c1cccc2nsnc12)N1CCC(N2CCCCC2)CC1 | Ki ([1]; read-out: Ki): > 10 µM |
| 2.51 | > 10 | CN1CCN(C(=O)c2ccc(Cl)cc2NS(=O)(=O)c2cccc3nsnc23)CC1 |  |
| 1 | > 10 | O=C(c1c(Cl)cccc1NS(=O)(=O)c1cccc2nsnc12)N1CCCCC1 |  |
| 0.158 | > 10 | O=C(c1ccc(OC2CCCC2)cc1NS(=O)(=O)c1cccc2nsnc12)N1CCCCC1 |  |
| 0.0631 | > 10 | O=C(c1ccc(C(F)(F)F)cc1NS(=O)(=O)c1cccc2nsnc12)N1CCCCC1 |  |
| 0.316 | > 10 | O=C(c1ccc(Cl)cc1NS(=O)(=O)c1cccc2nsnc12)N1CCOCC1 |  |
| 0.251 | > 10 | O=C(c1ccc(Cl)cc1NS(=O)(=O)c1cccc2nsnc12)N1CCCC1 |  |
| 0.316 | > 10 | CN(C)c1ccc(C(=O)N2CCCCC2)c(NS(=O)(=O)c2cccc3nsnc23)c1 |  |
| 1 |  | O=C(c1ccc(F)cc1NS(=O)(=O)c1cccc2nsnc12)N1CCCCC1 |  |
| 0.501 | > 10 | COc1cc(C(=O)N2CCCCC2)c(NS(=O)(=O)c2cccc3nsnc23)cc1Cl |  |
